Like-named read-outs stand apart in the source and are kept apart here.
Columns and labels:
ryegrass, Italian = assay: Test A postemergence; format: in vivo, Lolium multiflorum; settings: Lolium multiflorum, post-emergence, 240 h, postemergence, 10 days, 0 to 100 scale (0 no effect, 100 complete control); for pest or weed control at 125 g/ha: 125 g ai/ha, read-out: Ryegrass, Italian plant response rating; for pest or weed control at 500 g/ha: 500 g ai/ha, visual injury, read-out: Plant response rating, Ryegrass, Italian
Summary of the method: (§1)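 Greenhouse pot test, 10 days. Compound (non-phytotoxic solvent, surfactant) sprayed on soil at seeding or on seedlings at one- to two-leaf stage. Visual injury rated 0–100 against untreated plants.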

blackgrass = assay: Test A preemergence; format: in vivo, Alopecurus myosuroides; settings: Alopecurus myosuroides, pre-emergence, 240 h, read-out: Plant response rating, Blackgrass; for pest or weed control at 125 g/ha: 125 g ai/ha, visual injury after 10 days, 0 to 100 scale, 0 is no effect, 100 is complete control; for pest or weed control at 500 g/ha: 500 g ai/ha, 0 to 100 scale (0 no effect, 100 complete control), 10 days
Summary of the method: as §1

pigweed, palmer = assay: Test A preemergence; format: in vivo, Amaranthus palmeri; settings: Amaranthus palmeri, pre-emergence, 240 h, read-out: Plant response rating, Pigweed, Palmer; for pest or weed control at 125 g/ha: 125 g ai/ha; for pest or weed control at 500 g/ha: 500 g ai/ha
Summary of the method: as §1

ducksalad = assay: Test B flooded paddy test; format: in vivo, Heteranthera limosa; settings: Heteranthera limosa, 312 h, 250 g ai/ha, Flood, 13 days, 0 to 100 scale (0 no effect, 100 complete control); read-out: Plant response rating, Ducksalad
Summary of the method: (§2)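 Flooded to 3 cm at treatment time, 2-leaf plants got the test compound applied straight into the paddy water. They then stayed under constant flood in a greenhouse for 13 days. Ratings used a 0 to 100 visual scale.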

oat, wild [1] = assay: Test A postemergence; format: in vivo, Avena fatua; settings: Avena fatua, post-emergence, 240 h, postemergence, 10 days, 0 to 100 scale (0 no effect, 100 complete control); for pest or weed control at 125 g/ha: 125 g ai/ha, read-out: Oat, Wild plant response rating; for pest or weed control at 500 g/ha: 500 g ai/ha, visual injury, read-out: Plant response rating, Oat, Wild
Summary of the method: as §1

soybean [2] = assay: Test A postemergence; format: in vivo, Glycine max; settings: Glycine max, post-emergence, 240 h, postemergence, 10 days, 0 to 100 scale (0 no effect, 100 complete control); for plant injury at 125 g/ha: 125 g ai/ha, read-out: Soybean plant response rating; for plant injury at 500 g/ha: 500 g ai/ha, visual injury, read-out: Plant response rating, Soybean
Summary of the method: as §1

sedge, umbrella = assay: Test B flooded paddy test; format: in vivo, Cyperus difformis; settings: Cyperus difformis, 312 h; 250 g ai/ha, Flood, 13 days, 0 to 100 scale (0 no effect, 100 complete control); read-out: Plant response rating, Sedge, Umbrella
Summary of the method: as §2

soybean [3] = assay: Test A preemergence; format: in vivo, Glycine max; settings: Glycine max, pre-emergence, 240 h, read-out: Plant response rating, Soybean; for plant injury at 125 g/ha: 125 g ai/ha; for plant injury at 500 g/ha: 500 g ai/ha
Summary of the method: as §1

kochia [4] = assay: Test A preemergence; format: in vivo, Bassia scoparia; settings: Bassia scoparia, pre-emergence, 240 h, read-out: Plant response rating, Kochia; for pest or weed control at 125 g/ha: 125 g ai/ha; for pest or weed control at 500 g/ha: 500 g ai/ha
Summary of the method: as §1

rice = assay: Test B flooded paddy test; format: in vivo, Oryza sativa; settings: Oryza sativa, 312 h; 250 g ai/ha, Flood, 13 days, 0 to 100 scale (0 no effect, 100 complete control); read-out: Plant response rating, Rice
Summary of the method: as §2

kochia [5] = assay: Test A postemergence; format: in vivo, Bassia scoparia; settings: Bassia scoparia, post-emergence, 240 h, postemergence, 10 days, 0 to 100 scale (0 no effect, 100 complete control); for pest or weed control at 125 g/ha: 125 g ai/ha; for pest or weed control at 500 g/ha: 500 g ai/ha
Summary of the method: as §1

oat, wild [6] = assay: Test A preemergence; format: in vivo, Avena fatua; settings: Avena fatua, pre-emergence, 240 h, read-out: Plant response rating, Oat, Wild; for pest or weed control at 125 g/ha: 125 g ai/ha, visual injury after 10 days, 0 to 100 scale, 0 is no effect, 100 is complete control; for pest or weed control at 500 g/ha: 500 g ai/ha, 0 to 100 scale (0 no effect, 100 complete control), 10 days
Summary of the method: as §1

wheat = assay: Test A postemergence; format: in vivo, Triticum aestivum; settings: Triticum aestivum, post-emergence, 240 h, postemergence, 10 days, 0 to 100 scale (0 no effect, 100 complete control); for plant injury at 125 g/ha: 125 g ai/ha, read-out: Wheat plant response rating; for plant injury at 500 g/ha: 500 g ai/ha, visual injury, read-out: Plant response rating, Wheat
Summary of the method: as §1

ragweed = assay: Test A postemergence; format: in vivo, Ambrosia artemisiifolia; settings: Ambrosia artemisiifolia, post-emergence, 240 h, postemergence, 10 days, 0 to 100 scale (0 no effect, 100 complete control); for pest or weed control at 125 g/ha: 125 g ai/ha, read-out: Ragweed plant response rating; for pest or weed control at 500 g/ha: 500 g ai/ha, visual injury, read-out: Plant response rating, Ragweed
Summary of the method: as §1

galium = assay: Test A postemergence; format: in vivo, Galium aparine; settings: Galium, post-emergence, 240 h, postemergence, 10 days, 0 to 100 scale (0 no effect, 100 complete control); for pest or weed control at 125 g/ha: 125 g ai/ha; for pest or weed control at 500 g/ha: 500 g ai/ha
Summary of the method: as §1

[7] = visual injury after 10 days, 0 to 100 scale, 0 is no effect, 100 is complete control
[8] = 0 to 100 scale (0 no effect, 100 complete control), 10 days
[9] = read-out: Kochia plant response rating
[10] = visual injury, read-out: Plant response rating, Kochia
[11] = visual injury, read-out: Plant response rating, Galium

Compound	pest or weed control at 125 g/ha (ryegrass, Italian) [%]	pest or weed control at 500 g/ha (ryegrass, Italian) [%]	pest or weed control at 125 g/ha (pigweed, palmer; [7]) [%]	pest or weed control at 500 g/ha (pigweed, palmer; [8]) [%]	pest or weed control at 250 g/ha (ducksalad) [%]	pest or weed control at 125 g/ha (oat, wild [1]) [%]	pest or weed control at 500 g/ha (oat, wild [1]) [%]	plant injury at 125 g/ha (soybean [2]) [%]	plant injury at 500 g/ha (soybean [2]) [%]	pest or weed control at 250 g/ha (sedge, umbrella) [%]	plant injury at 125 g/ha (soybean [3]; [7]) [%]	plant injury at 500 g/ha (soybean [3]; [8]) [%]	pest or weed control at 125 g/ha (kochia [4]; [7]) [%]	pest or weed control at 500 g/ha (kochia [4]; [8]) [%]	plant injury at 250 g/ha (rice) [%]	pest or weed control at 125 g/ha (kochia [5]; [9]) [%]	pest or weed control at 500 g/ha (kochia [5]; [10]) [%]	plant injury at 125 g/ha (wheat) [%]	plant injury at 500 g/ha (wheat) [%]	pest or weed control at 500 g/ha (ragweed) [%]	further results
COc1ccc(-n2cnc(C(C)C)n2)cc1C(=O)N1C[C@H](C)Oc2c(Cl)cccc21 [Compound 84, [(2S)-8-chloro-2-methyl-2,3-dihydro-1,4-benzoxazin-4-yl]-[5-(3-isopropyl-1,2,4-triazol-1-yl)-2-methoxy-phenyl]methanone]	100	100	100	100	60	90	90	100	100	100	90	100	80	100	0	90	90	40	50	100	pest or weed control at 125 g/ha (blackgrass): 80%; pest or weed control at 500 g/ha (blackgrass): 80%; pest or weed control at 125 g/ha (oat, wild [6]): 90%; pest or weed control at 500 g/ha (oat, wild [6]): 90%; pest or weed control at 125 g/ha (ragweed): 100%
CCc1ncn(-c2ccc(OC)c(C(=O)N3C[C@H](C)Oc4c(Cl)cccc43)c2)n1 [Compound 88, [(2S)-8-Chloro-2,3-dihydro-2-methyl-4H-1,4-benzoxazin-4-yl][5-(3-ethyl-1H-1,2,4-triazol-1-yl)-2-methoxyphenyl]methanone]	80	100	100	100	55	90	90	100	100	100	50	100	90	100	10	90	100	40	90	100	pest or weed control at 125 g/ha (blackgrass): 80%; pest or weed control at 500 g/ha (blackgrass): 80%; pest or weed control at 125 g/ha (oat, wild [6]): 90%; pest or weed control at 500 g/ha (oat, wild [6]): 90%; pest or weed control at 125 g/ha (ragweed): 70%
Cc1ccc(-n2ncnc2C)cc1C(=O)N1C[C@H](C)Oc2c(Cl)cccc21 (single isomer, unassigned) [Compound 126]	0	50	20		0	0	50	40	60	0	0		0		0	10	20	0	30	50	pest or weed control at 125 g/ha (galium; read-out: Galium plant response rating): 50%; pest or weed control at 500 g/ha (galium; [11]): 70%; pest or weed control at 500 g/ha (pigweed, palmer; [7]): 60%; plant injury at 500 g/ha (soybean [3]; [7]): 50%; pest or weed control at 500 g/ha (kochia [4]; [7]): 0%; pest or weed control at 125 g/ha (ragweed): 30%
Cc1ccc(-n2cnc(C(C)(C)C)n2)cc1C(=O)N1C[C@H](C)Oc2c(Cl)cccc21 [Compound 76, [(2S)-8-Chloro-2,3-dihydro-2-methyl-4H-1,4-benzoxazin-4-yl][5-[3-(1,1-dimethylethyl)-1H-1,2,4-triazol-1-yl]-2-methylphenyl]methanone]		80	100	100	20		90		100	98	50	100	70	100	0		90		40	60	pest or weed control at 125 g/ha (galium; [11]): 100%; pest or weed control at 500 g/ha (galium; [11]): 100%; pest or weed control at 125 g/ha (kochia [5]; [10]): 90%
